Experimental data: ChEMBL document CHEMBL3352087 (J Med Chem, 2014)
In brackets after ≈: the same amount, converted by molar mass.

What was measured:
Mus musculus = assay: Unbound clearance in CD-1 mouse at 3 mg/kg, iv and 10 mg/kg, po; type: ADME, organism-based; details: in vivo
Plasma [1] = assay: Free plasma concentration in CD-1 mouse at 3 mg/kg, iv and 10 mg/kg, po measured at 1 hr post dose; type: ADME, organism-based; details: in vivo
Brain [2] = assay: Free drug level in CD-1 mouse brain at 3 mg/kg, iv and 10 mg/kg, po measured at 4 hrs post dose; type: ADME, organism-based; details: in vivo
Plasma [3] = assay: Free plasma concentration in CD-1 mouse at 3 mg/kg, iv and 10 mg/kg, po measured at 4 hrs post dose; type: ADME, organism-based; details: in vivo
Brain [4] = assay: Free drug level in CD-1 mouse brain at 3 mg/kg, iv and 10 mg/kg, po measured at 1 hr post dose; type: ADME, organism-based; details: in vivo
[5] = Systemic clearance in CD-1 mouse at 3 mg/kg, iv and 10 mg/kg, po; type: ADME, organism-based; details: in vivo, read-out: CLH
Beta-secretase 1 [6] = biological target: T1, Beta-secretase 1 (Homo sapiens, UniProt P56817); assay: Inhibition of purified recombinant human BACE1 expressed in CHO cells assessed as uncleaved biotinylated sAPP after 2 hrs by HTRF assay
Beta-secretase 1 [7] = biological target: T1, Beta-secretase 1; assay: Inhibition of BACE1 in HEK293 cells expressing swedish double mutant APP assessed as amyloid beta (1 to 40) peptide level after 7 hrs by HTRF assay; type: cell-based
CHO = assay: Ratio of IC50 for cathepsin D purified from human spleen to IC50 for purified recombinant human BACE1 expressed in CHO cells
MDR1 (human) [8] = assay: (§1) Apparent permeability from apical to basolateral side in pig LLC-PK1 cells transfected with human MDR1; type: ADME, cell-based, Sus scrofa; details: LLC-PK1
MDR1 (human) [9] = assay: (§2) Efflux ratio of permeability from basolateral to apical side to apical to basolateral side in pig LLC-PK1 cells transfected with human MDR1 at 1 uM; type: ADME, cell-based, Sus scrofa; details: LLC-PK1
Rattus norvegicus [10] = assay: Reduction in amyloid beta(1 to 40) in Sprague-Dawley rat CSF at 60 mg/kg, po measured at 3 hrs post dose; type: functional; design: scale not given: the % may be the effect or the level left
[11] = Ratio of free drug level in brain to plasma of Sprague-Dawley rat at 60 mg/kg, po measured at 5 hrs post dose; type: ADME, organism-based; design: dose 60 mg/kg, route oral; details: brain and plasma, read-out: BPR
[12] = Ratio of free drug level in brain of Sprague-Dawley rat at 60 mg/kg, po measured at 5 hrs post dose to IC50 for BACE1 in HEK293 cells expressing swedish double mutant APP; type: ADME, organism-based; design: dose 60 mg/kg, route oral; details: in vivo
Brain [13] = assay: Free drug level in Sprague-Dawley rat brain at 60 mg/kg, po measured at 3 hrs post dose; type: ADME, organism-based; design: dose 60 mg/kg, route oral; details: in vivo
Plasma [14] = assay: Free plasma concentration in Sprague-Dawley rat at 60 mg/kg, po measured at 5 hrs post dose; type: ADME, organism-based; design: dose 60 mg/kg, route oral; details: in vivo
[15] = Solubility of the compound at pH 7.2; type: physicochemical; details: buffer
LLC-PK1 [16] = assay: as §1; type: ADME, cell-based, Sus scrofa; details: llc-pk1
Rattus norvegicus [17] = assay: Reduction in amyloid beta(1 to 40) in Sprague-Dawley rat CSF at 60 mg/kg, po measured at 5 hrs post dose; type: functional; design: scale not given: the % may be the effect or the level left
Brain [18] = assay: Free drug level in Sprague-Dawley rat brain at 60 mg/kg, po measured at 5 hrs post dose; type: ADME, organism-based; design: dose 60 mg/kg, route oral; details: in vivo
[19] = Drug level in Sprague-Dawley rat CSF at 60 mg/kg, po measured at 3 hrs post dose; type: ADME, organism-based, Cerebrospinal fluid; design: dose 60 mg/kg, route oral; details: read-out: Drug uptake
Plasma [20] = assay: Free plasma concentration in Sprague-Dawley rat at 60 mg/kg, po measured at 3 hrs post dose; type: ADME, organism-based; design: dose 60 mg/kg, route oral; details: in vivo
[21] = Drug level in Sprague-Dawley rat CSF at 60 mg/kg, po measured at 5 hrs post dose; type: ADME, organism-based, Cerebrospinal fluid; design: dose 60 mg/kg, route oral; details: read-out: Drug uptake
[22] = Ratio of free drug level in brain of Sprague-Dawley rat at 60 mg/kg, po measured at 3 hrs post dose to IC50 for BACE1 in HEK293 cells expressing swedish double mutant APP; type: ADME, organism-based; design: dose 60 mg/kg, route oral; details: in vivo
[23] = Fraction unbound in Sprague-Dawley rat brain; type: ADME, tissue-based
[24] = Ratio of free drug level in brain to plasma of Sprague-Dawley rat at 60 mg/kg, po measured at 3 hrs post dose; type: ADME, organism-based; design: dose 60 mg/kg, route oral; details: brain and plasma, read-out: BPR
LLC-PK1 [25] = assay: as §2; type: ADME, cell-based, Sus scrofa; details: llc-pk1, 1 µM, 1 µM
[26] = Ratio of free drug level in brain of CD-1 mouse at 3 mg/kg, iv and 10 mg/kg, po measured at 1 hr post dose to IC50 for BACE1 in HEK293 cells expressing swedish double mutant APP; type: ADME, organism-based; details: hek293, 1 h
[27] = Ratio of free drug level in brain of CD-1 mouse at 3 mg/kg, iv and 10 mg/kg, po measured at 4 hrs post dose to IC50 for BACE1 in HEK293 cells expressing swedish double mutant APP; type: ADME, organism-based; details: hek293, 4 h
[28] = Fraction unbound in CD-1 mouse brain; type: ADME, tissue-based
[29] = Ratio of free drug level in brain to plasma of CD-1 mouse brain at 3 mg/kg, iv and 10 mg/kg, po measured at 4 hrs post dose; type: ADME, organism-based; details: read-out: BPR
[30] = Fraction unbound in CD-1 mouse plasma; type: ADME, cell-free
[31] = Ratio of free drug level in brain to plasma of CD-1 mouse at 3 mg/kg, iv and 10 mg/kg, po measured at 1 hr post dose; type: ADME, organism-based; details: read-out: BPR

T1 sequence (P56817 whole entry): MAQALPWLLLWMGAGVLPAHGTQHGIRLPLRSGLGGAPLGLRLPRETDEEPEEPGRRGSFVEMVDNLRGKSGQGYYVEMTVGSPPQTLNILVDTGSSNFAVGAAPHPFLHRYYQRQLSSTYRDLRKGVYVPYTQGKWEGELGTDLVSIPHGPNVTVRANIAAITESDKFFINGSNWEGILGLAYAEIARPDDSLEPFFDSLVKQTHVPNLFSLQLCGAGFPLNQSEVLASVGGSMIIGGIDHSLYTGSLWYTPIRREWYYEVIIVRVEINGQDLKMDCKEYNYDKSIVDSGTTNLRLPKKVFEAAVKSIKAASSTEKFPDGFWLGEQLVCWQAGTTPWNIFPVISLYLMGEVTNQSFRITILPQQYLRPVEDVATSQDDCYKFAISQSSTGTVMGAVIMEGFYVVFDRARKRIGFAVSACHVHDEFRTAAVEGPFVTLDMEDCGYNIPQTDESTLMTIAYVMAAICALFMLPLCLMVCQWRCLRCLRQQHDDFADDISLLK

IC50 (Beta-secretase 1 [6]) [nM] | IC50 (Beta-secretase 1 [7]) [nM] | Papp A→B (MDR1 (human) [8]) [×10⁻⁶ cm/s] | efflux ratio at 1 µM (MDR1 (human) [9]) | Structure (SMILES) | Ratio IC50 (CHO) | also measured
810 | 550 | 37 | 1.2 | NC1=N[C@@]2(CS1)c1cc(-c3cccnc3F)ccc1O[C@@H]1CCCO[C@H]12 | > 250 | 
98 | 100 | 30 | 3.2 | C[C@]12CCCO[C@@H]1[C@]1(COC(N)=N1)c1cc(-c3cccc(C#N)c3)ccc1O2 (racemic) [listing 1 of 2 here] |  | Ratio [26]: 0.13; Ratio [27]: 0.075; fraction unbound [28]: 0.013; Kp uu at 4 h [29]: 0.21; fraction unbound [30]: 0.039; CL free (Mus musculus): 870 mL/min/kg; Cp(f) (Plasma [1]): 54 nM; Drug uptake (Brain [2]): 7.5 nM; Cp(f) (Plasma [3]): 35 nM; Drug uptake (Brain [4]): 13 nM; Kp uu at 1 h [31]: 0.24; clearance [5]: 34 mL/min/kg
700 | 1900 |  |  | CN1C(=O)[C@]2(N=C1N)c1cc(-c3cccnc3F)ccc1O[C@@H]1CCCO[C@H]12 (relative stereo) | 19 | 
13 | 5.7 | 5.3 | 110 | CN1C(=O)[C@]2(N=C1N)c1cc(-c3cccnc3F)ccc1O[C@@]1(C)CCCO[C@@H]12 (relative stereo) | 510 | 
26 | 37 | 6 | 31 | CN1C(=O)[C@]2(N=C1N)c1cc(-c3cccnc3F)ccc1O[C@]1(C)CCCO[C@H]12 (relative stereo) | 69 | 
76 | 60 | 29 | 6.2 | C[C@]12CCCO[C@@H]1[C@]1(COC(N)=N1)c1cc(-c3cccnc3F)ccc1O2 (relative stereo) | 430 | Ratio [26]: 0.1; Ratio [27]: 0.018; fraction unbound [28]: 0.04; Kp uu at 4 h [29]: 0.16; fraction unbound [30]: 0.11; CL free (Mus musculus): 1300 mL/min/kg; Cp(f) (Plasma [1]): 37 nM; Drug uptake (Brain [2]): 1.1 nM; Cp(f) (Plasma [3]): 6.8 nM; Drug uptake (Brain [4]): 6 nM; Kp uu at 1 h [31]: 0.16; clearance [5]: 150 mL/min/kg
51 | 48 | 12 | 3.3 | C[C@]12CCCO[C@@H]1[C@]1(CSC(N)=N1)c1cc(-c3cncc(Cl)c3)ccc1O2 (relative stereo) | 1100 | 
56 | 81 | 29 | 3.1 | C[C@]12CCCO[C@@H]1[C@]1(CSC(N)=N1)c1cc(-c3cncnc3)ccc1O2 (relative stereo) | 1100 | 
89 | 56 | 23 | 9.8 | C[C@]12CCCO[C@@H]1[C@]1(COC(N)=N1)c1cc(-c3cncnc3)ccc1O2 (single isomer, unassigned) | > 2200 | 

Further lines, the compound ahead of its results:

Structure (SMILES) | IC50 (Beta-secretase 1 [6]) [nM] | IC50 (Beta-secretase 1 [7]) [nM] | Papp A→B (MDR1 (human) [8]) [×10⁻⁶ cm/s] | efflux ratio at 1 µM (MDR1 (human) [9]) | Ratio IC50 (CHO) | also measured
CN1C(=O)[C@]2(N=C1N)c1cc(-c3cccnc3F)ccc1O[C@H]1CCOC[C@@H]12 |  |  |  |  |  | CL free (Mus musculus): 330 mL/min/kg; Cp(f) (Plasma [1]): 320 nM; Drug uptake (Brain [2]): 8.4 nM; Cp(f) (Plasma [3]): 75 nM; Drug uptake (Brain [4]): 11 nM; clearance [5]: 70 mL/min/kg
NC1=N[C@@]2(CO1)c1cc(-c3cccnc3F)ccc1O[C@@H]1CCCO[C@H]12 | 1100 | 759 |  |  |  | 
C[C@]12CCCO[C@@H]1[C@]1(COC(N)=N1)c1cc(-c3cccc(C#N)c3)ccc1O2 [listing 1 of 2 here] | 45 | 39 |  |  |  | Activity (Rattus norvegicus [10]): 63%; Kp uu at 5 h [11]: 0.32; Ratio [12]: 2.1; Drug uptake(free) (Brain [13]): 88 nM; Cp(f) (Plasma [14]): 250 nM; solubility [15]: 57 µg/mL (≈ 152 µM); Papp (LLC-PK1 [16]): 19 ×10⁻⁶ cm/s; Activity (Rattus norvegicus [17]): 69%; Drug uptake(free) (Brain [18]): 80 nM; concentration at 3 h [19]: 150 nM; Cp(f) (Plasma [20]): 270 nM; concentration at 5 h [21]: 230 nM; Ratio [22]: 2.3; fraction unbound [23]: 0.014; Kp uu at 3 h [24]: 0.33; Ratio (LLC-PK1 [25]): 3.4
C[C@]12CCCO[C@@H]1[C@]1(COC(N)=N1)c1cc(-c3cccc(C#N)c3)ccc1O2 [listing 2 of 2 here] |  |  |  |  | 1300 | 
C[C@]12CCCO[C@@H]1[C@]1(COC(N)=N1)c1cc(-c3cncc(Cl)c3)ccc1O2 (racemic) | 52 | 37 | 25 | 7.1 | 2100 | 
C[C@]12CCCO[C@@H]1[C@]1(COC(N)=N1)c1cc(-c3cccc(C#N)c3)ccc1O2 (racemic) [listing 2 of 2 here] |  |  |  |  | 840 | 
CN1C(=O)[C@]2(N=C1N)c1cc(-c3cccnc3F)ccc1O[C@H]1CCCO[C@@H]12 (relative stereo) | 48 | 12 | 6.8 | 31 | 50 | Ratio [26]: 0.14; Ratio [27]: 0.13; fraction unbound [28]: 0.037; Kp uu at 4 h [29]: 0.044; fraction unbound [30]: 0.18; CL free (Mus musculus): 600 mL/min/kg; Cp(f) (Plasma [1]): 120 nM; Drug uptake (Brain [2]): 1.6 nM; Cp(f) (Plasma [3]): 36 nM; Drug uptake (Brain [4]): 1.7 nM; Kp uu at 1 h [31]: 0.014; clearance [5]: 110 mL/min/kg
C[C@@]12CCCO[C@H]1[C@]1(COC(N)=N1)c1cc(-c3cccnc3F)ccc1O2 (relative stereo) | 210 | 130 | 33 | 4.8 | 48 | 
C[C@]12CCCO[C@@H]1[C@]1(CSC(N)=N1)c1cc(-c3cccnc3F)ccc1O2 (relative stereo) | 27 | 86 | 31 | 2 | 890 | 
C[C@]12CCCO[C@@H]1[C@]1(COC(N)=N1)c1cc(-c3cc(F)cc(Cl)c3)ccc1O2 (relative stereo) | 55 | 93 | 5.6 | 1.7 | 530 | 
C[C@]12CCCO[C@@H]1[C@]1(CSC(N)=N1)c1cc(-c3cc(F)cc(Cl)c3)ccc1O2 (relative stereo) | 41 | 110 | 1.4 | 1.2 | 830 | 
C[C@]12CCCO[C@@H]1[C@]1(CSC(N)=N1)c1cc(-c3cccc(C#N)c3)ccc1O2 (relative stereo) | 41 | 140 | 14 | 1.8 | 680 | 
